The record followed here is patent publication US11590139B2, “Substituted aminopurine compounds, compositions thereof, and methods of treatment therewith” (Signal Pharmaceuticals, LLC, priority 2014, dated 2023).

The subject of one experiment is Lox-IMVI melanoma cell line. As to the kind of experiment: Lox-IMVI anti-proliferative assay (growth inhibition, Cell Titer-Glo). In kind it is cell-based, human. The following applies: Homo sapiens; IC50 activity level in the cell-based Lox-IMVI anti-proliferative assay; read-out: Activity. The essentials: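 Cells grown in RPMI + 10% FBS were exposed to compound at 0.5 nM to 10 μM (10-point, 3-fold dilution, duplicate, 0.2% DMSO final) for 72 h at 37 °C, 5% CO2. Viability was read by ATP luminescence at t0 and 72 h. IC50 came from a four-parameter logistic fit normalized to DMSO control.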
Regarding `CS(=O)(=O)N1CCC(Nc2ncc3nc(Nc4ccc(Cl)c(F)c4F)n([C@H]4CC[C@@H](C(N)=O)CC4)c3n2)CC1` [Example 298, (1s,4s)-4-(8-(4-chloro-2,3-difluorophenylamino)-2-(1-(methylsulfonyl)piperidin-4-ylamino)-9H-purin-9-yl)cyclohexanecarboxamide], the IC50 was more than 1000 nM. Still for that read-out and setting: next, `CC[C@@H](CO)Nc1ncc2nc(Nc3c(F)cc(Cl)cc3F)n([C@H]3CC[C@@H](C(N)=O)CC3)c2n1` [Example 146, (1R,4s)-4-(8-(4-chloro-2,6-difluorophenylamino)-2-((S)-1-hydroxybutan-2-ylamino)-9H-purin-9-yl)cyclohexanecarboxamide]: 500 to 1000 nM; `NC(=O)[C@H]1CC[C@@H](n2c(Nc3c(F)cccc3F)nc3cnc(N[C@@H]4CCC[C@H](O)C4)nc32)CC1` [Example 348, (1S,4s)-4-(8-(2,6-difluorophenylamino)-2-((1R,3S)-3-hydroxycyclohexylamino)-9H-purin-9-yl)cyclohexanecarboxamide]: more than 1000 nM; `CCC(C)Nc1ncc2nc(Nc3c(F)ccc(Cl)c3F)n([C@H]3CC[C@@H](C(N)=O)CC3)c2n1` (stereo partly drawn) [Example 340, (1R,4s)-4-(2-(sec-butylamino)-8-(3-chloro-2,6-difluorophenylamino)-9H-purin-9-yl)cyclohexanecarboxamide]: more than 1000 nM. Still for that read-out and setting: next, `CC(C)(C)OC(=O)N1CC[C@H](Nc2ncc3nc(Nc4c(F)cccc4F)n([C@H]4CC[C@@H](C(N)=O)CC4)c3n2)[C@H](F)C1` [Example 128, (3R,4S)-tert-butyl 4-(9-((1s,4R)-4-carbamoylcyclohexyl)-8-(2,6-difluorophenylamino)-9H-purin-2-ylamino)-3-fluoropiperidine-1-carboxylate]: more than 1000 nM; `NC(=O)[C@H]1CC[C@@H](n2c(Nc3c(F)cc(F)cc3F)nc3cnc(NC4CCOCC4)nc32)CC1` [Example 11]: less than 250 nM; `NC(=O)[C@H]1CC[C@@H](n2c(Nc3c(F)cccc3Cl)nc3cnc(NC4CCN(c5ccccc5)CC4)nc32)CC1` [Example 108, (1s,4s)-4-(8-(2-chloro-6-fluorophenylamino)-2-(1-phenylpiperidin-4-ylamino)-9H-purin-9-yl)cyclohexanecarboxamide]: more than 1000 nM. With `NC(=O)[C@H]1CC[C@@H](n2c(Nc3c(F)ccc(F)c3F)nc3cnc(N[C@@H]4CCC[C@H]4O)nc32)CC1` [Example 260, (1S,4s)-4-(2-((1R,2R)-2-hydroxycyclopentylamino)-8-(2,3,6-trifluorophenylamino)-9H-purin-9-yl)cyclohexanecarboxamide], the IC50 was more than 1000 nM. For the compound `NC(=O)[C@H]1CC[C@@H](n2c(Nc3cc(Cl)ccc3F)nc3cnc(N[C@H]4COC[C@@H]4O)nc32)CC1` [Example 320, (1R,4s)-4-(8-(5-chloro-2-fluorophenylamino)-2-((3S,4R)-4-hydroxytetrahydrofuran-3-ylamino)-9H-purin-9-yl)cyclohexanecarboxamide], the IC50 is more than 1000 nM. Same read-out and setting: next, `NC(=O)[C@H]1CC[C@@H](n2c(Nc3cc(Cl)ccc3F)nc3cnc(N[C@@H]4CCC[C@H]4O)nc32)CC1` [Example 262, (1S,4s)-4-(8-(5-chloro-2-fluorophenylamino)-2-((1R,2R)-2-hydroxycyclopentylamino)-9H-purin-9-yl)cyclohexanecarboxamide]: more than 1000 nM; `NC(=O)[C@H]1CC[C@@H](n2c(Nc3cc(Cl)c(F)cc3F)nc3cnc(NC4CCOCC4)nc32)CC1` [Example 64, (1s,4s)-4-(8-(5-chloro-2,4-difluorophenylamino)-2-(tetrahydro-2H-pyran-4-ylamino)-9H-purin-9-yl)cyclohexanecarboxamide]: more than 1000 nM.

The experiment is the same for the next values; noted with them: Homo sapiens; Lox-IMVI anti-proliferative assay, IC50 activity level; read-out: Activity.
As to `N#Cc1ccc(Cl)c(Nc2nc3cnc(NC4CCOCC4)nc3n2[C@H]2CC[C@@H](C(N)=O)CC2)c1Cl` [Example 443, (1s,4s)-4-(8-(2,6-dichloro-3-cyanophenylamino)-2-(tetrahydro-2H-pyran-4-ylamino)-9H-purin-9-yl)cyclohexanecarboxamide], the IC50 was more than 1000 nM. `NC(=O)[C@H]1CC[C@@H](n2c(Nc3c(F)cc(F)cc3Cl)nc3cnc(NC4CCCOCC4)nc32)CC1` (stereo partly drawn) [Example 538, (1s,4s)-4-(8-(2-chloro-4,6-difluorophenylamino)-2-(oxepan-4-ylamino)-9H-purin-9-yl)cyclohexanecarboxamide]: the IC50 lay within 250 to 500 nM. The same measure, in the same setting: the same measure for `C[C@H]1COCC[C@H]1Nc1ncc2nc(Nc3c(Cl)cc(C#N)cc3Cl)n([C@H]3CC[C@@H](C(N)=O)CC3)c2n1` [Example 497, (1S,4s)-4-(8-(2,6-dichloro-4-cyanophenylamino)-2-((3R,4R)-3-methyltetrahydro-2H-pyran-4-ylamino)-9H-purin-9-yl)cyclohexanecarboxamide]: less than 250 nM; for `COC(=O)N1CCCC(Nc2ncc3nc(Nc4c(Cl)cccc4Cl)n([C@H]4CC[C@@H](C(N)=O)CC4)c3n2)C1` (stereo partly drawn) [Example 405, (R)-methyl 3-(9-((1s,4S)-4-carbamoylcyclohexyl)-8-(2,6-dichlorophenylamino)-9H-purin-2-ylamino)piperidine-1-carboxylate]: more than 1000 nM; for `NC(=O)[C@H]1CC[C@@H](n2c(Nc3c(Cl)cc(C(F)(F)F)cc3Cl)nc3cnc(NC4CCOCC4)nc32)CC1` [Example 442, (1s,4s)-4-(8-(2,6-dichloro-4-(trifluoromethyl)phenylamino)-2-(tetrahydro-2H-pyran-4-ylamino)-9H-purin-9-yl)cyclohexanecarboxamide]: 250 to 500 nM. On the same count and under the same terms, the same measure for `N#Cc1cc(Cl)c(Nc2nc3cnc(N[C@H]4CCCC[C@H]4O)nc3n2[C@H]2CC[C@@H](C(N)=O)CC2)c(Cl)c1` [Example 519, (1R,4s)-4-(8-(2,6-dichloro-4-cyanophenylamino)-2-((1S,2R)-2-hydroxycyclohexylamino)-9H-purin-9-yl)cyclohexanecarboxamide]: more than 1000 nM.

The same experiment, now with this note: Homo sapiens; Lox-IMVI melanoma cell line, anti-proliferative assay; read-out: Activity (IC50 activity level).
In the case of `NC(=O)[C@H]1CC[C@@H](n2c(Nc3c(F)cc(Cl)cc3Cl)nc3cnc(N[C@H]4CCOC[C@H]4F)nc32)CC1` [Example 714, (1R,4s)-4-(8-(2,4-dichloro-6-fluorophenylamino)-2-((3S,4S)-3-fluorotetrahydro-2H-pyran-4-ylamino)-9H-purin-9-yl)cyclohexanecarboxamide], the IC50 is less than 250 nM. Still for that read-out and setting: next, `C[C@]1(C(N)=O)CC[C@@H](n2c(Nc3c(F)cc(Cl)cc3F)nc3cnc(N[C@H]4CC[C@H](O)C4)nc32)CC1` [Example 648, (1R,4s)-4-(8-(4-chloro-2,6-difluorophenylamino)-2-((1S,3S)-3-hydroxycyclopentylamino)-9H-purin-9-yl)-1-methylcyclohexanecarboxamide]: more than 1000 nM; `N#Cc1cc(F)c(Nc2nc3cnc(N[C@@H]4CCCN(c5ccccc5)C4)nc3n2[C@H]2CC[C@@H](C(N)=O)CC2)c(Cl)c1` [Example 750, (1S,4s)-4-(8-(2-chloro-4-cyano-6-fluorophenylamino)-2-((R)-1-phenylpiperidin-3-ylamino)-9H-purin-9-yl)cyclohexanecarboxamide]: more than 1000 nM; `C[C@]1(C(N)=O)CC[C@@H](n2c(Nc3c(F)cc(C#N)cc3Cl)nc3cnc(N[C@@H]4CC[C@@H](O)C4)nc32)CC1` [Example 640, (1S,4s)-4-(8-(2-chloro-4-cyano-6-fluorophenylamino)-2-((1R,3R)-3-hydroxycyclopentylamino)-9H-purin-9-yl)-1-methylcyclohexanecarboxamide]: less than 250 nM. Same read-out and setting: the same measure for `CCN1CCC[C@@H](Nc2ncc3nc(Nc4c(Cl)cc(Cl)cc4Cl)n([C@H]4CC[C@@H](C(N)=O)CC4)c3n2)C1` [Example 732, (1S,4s)-4-(2-((R)-1-ethylpiperidin-3-ylamino)-8-(2,4,6-trichlorophenylamino)-9H-purin-9-yl)cyclohexanecarboxamide]: more than 1000 nM; for `NC(=O)[C@H]1CC[C@@H](n2c(Nc3c(F)cc(Cl)cc3F)nc3cnc(NC[C@@H]4CCCC[C@H]4O)nc32)CC1` [Example 663, (1R,4s)-4-(8-(4-chloro-2,6-difluorophenylamino)-2-(((1S,2R)-2-hydroxycyclohexyl)methylamino)-9H-purin-9-yl)cyclohexanecarboxamide]: more than 1000 nM; for `NC(=O)[C@H]1CC[C@@H](n2c(Nc3c(Cl)cc(Cl)cc3Cl)nc3cnc(NC[C@@H]4CCCC[C@H]4O)nc32)CC1` [Example 661, (1R,4s)-4-(2-(((1S,2R)-2-hydroxycyclohexyl)methylamino)-8-(2,4,6-trichlorophenylamino)-9H-purin-9-yl)cyclohexanecarboxamide]: more than 1000 nM. On the same count and under the same terms, next, `N#Cc1cc(Cl)c(Nc2nc3cnc(N[C@@H]4CCC(F)(F)C4)nc3n2[C@H]2CC[C@@H](C(N)=O)CC2)c(Cl)c1` [Example 699, (1S,4s)-4-(8-(2,6-dichloro-4-cyanophenylamino)-2-((R)-3,3-difluorocyclopentylamino)-9H-purin-9-yl)cyclohexanecarboxamide]: 250 to 500 nM; `C[C@]1(C(N)=O)CC[C@@H](n2c(Nc3c(F)cc(C#N)cc3Cl)nc3cnc(N[C@@H]4CCC[C@@H](O)C4)nc32)CC1` [Example 623, (1S,4s)-4-(8-(2-chloro-4-cyano-6-fluorophenylamino)-2-((1R,3R)-3-hydroxycyclohexylamino)-9H-purin-9-yl)-1-methylcyclohexanecarboxamide]: 250 to 500 nM.

The experiment is the same for the next values; noted with them: Lox-IMVI melanoma cell line, anti-proliferative assay; read-out: Activity (IC50 activity level).
In the case of `CNC(=O)N1CCC[C@@H](Nc2ncc3nc(Nc4c(Cl)cc(C#N)cc4Cl)n([C@H]4CC[C@@H](C(N)=O)CC4)c3n2)C1` [Example 707, (R)-3-(9-((1s,4S)-4-carbamoylcyclohexyl)-8-(2,6-dichloro-4-cyanophenylamino)-9H-purin-2-ylamino)-N-methylpiperidine-1-carboxamide], the IC50 was more than 1000 nM.
